Key:
Assay in all cases: relative viability (nuclei count vs DMSO), 5 days (fraction); higher = more cells survive
[1] = compound: O[C@H]1CC[C@H](Nc2ncc3nc(Nc4c(F)cc(F)cc4F)n([C@H]4CCOC4)c3n2)CC1 [Tanzisertib] + O=C(c1cc(Cc2n[nH]c(=O)c3ccccc23)ccc1F)N1CCN(C(=O)C2CC2)CC1 [Olaparib] (partner 8 µM)
Procedure, shortened: (§1)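 Relative viability was taken as the ratio of nuclei in treated wells to nuclei in vehicle wells. Lung cancer cell lines in 1536-well plates received compounds by pin tool one day after seeding, either one drug alone or a fixed anchor-drug dose plus five library-drug doses (not always all listed) in √10 steps. Nuclei were counted on 4× images after 5 days of treatment, and values are medians of duplicate plates.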

[2] = compound: O[C@H]1CC[C@H](Nc2ncc3nc(Nc4c(F)cc(F)cc4F)n([C@H]4CCOC4)c3n2)CC1 [Tanzisertib] + N=C(N)NC(=N)NCCc1ccccc1 [Phenformin] (partner 250 µM)
Procedure, shortened: as §1

[3] = compound: C[C@@H](N)c1ccc(C(=O)Nc2ccnc3[nH]ccc23)cc1 + CS(=O)(=O)CCNCc1ccc(-c2ccc3ncnc(Nc4ccc(OCc5cccc(F)c5)c(Cl)c4)c3c2)o1 [Lapatinib] (partner 2 µM)
Procedure, shortened: as §1

[4] = compound: C1CNCCC1C2=CC(=NN2)C3=CC=NC=C3 + N=C(N)NC(=N)NCCc1ccccc1 [Phenformin] (partner 250 µM)
Procedure, shortened: as §1

Row | Cell Line | relative viability ([1]; first compound 0.08 µM) | relative viability ([1]; first compound 0.253 µM) | relative viability ([1]; first compound 0.8 µM) | relative viability ([1]; first compound 2.53 µM) | relative viability ([1]; first compound 8 µM) | relative viability ([2]; first compound 0.08 µM) | relative viability ([2]; first compound 0.253 µM) | relative viability ([2]; first compound 0.8 µM) | relative viability ([2]; first compound 2.53 µM) | relative viability ([2]; first compound 8 µM) | relative viability ([3]; first compound 0.04 µM) | relative viability ([3]; first compound 0.1265 µM) | relative viability ([3]; first compound 0.4 µM) | relative viability ([3]; first compound 1.265 µM) | relative viability ([3]; first compound 4 µM) | relative viability ([4]; first compound 0.08 µM) | relative viability ([4]; first compound 0.8 µM) | relative viability ([4]; first compound 2.53 µM) | relative viability ([4]; first compound 8 µM)
1 | COR-L 105 | 0.729 | 0.631 | 0.792 | 0.726 | 0.816 | 0.467 | 0.465 | 0.449 | 0.473 | 0.327 | 0.305 | 0.355 | 0.376 | 0.257 | 0.364 | 0.541 | 0.419 | 0.508 | 0.528
2 | EKVX | 0.888 | 0.876 | 0.862 | 0.872 | 0.792 | 0.227 | 0.244 | 0.253 | 0.227 | 0.205 | 0.223 | 0.224 | 0.242 | 0.224 | 0.215 | 0.269 | 0.209 | 0.255 | 0.209
3 | EMC-BAC-2 | 0.484 | 0.477 | 0.455 | 0.488 | 0.533 | 0.51 | 0.507 | 0.528 | 0.51 | 0.502 | 0.86 | 0.896 | 0.898 | 0.986 | 0.897 | 0.499 | 0.609 | 0.661 | 0.552
4 | EPLC-272H | 0.991 | 0.767 | 0.758 | 1.51 | 0.572 | 0.329 | 0.311 | 0.295 | 0.327 | 0.302 | 1 | 0.914 | 1.1 | – | 0.668 | 0.317 | 0.299 | 0.35 | 0.396
5 | H3255 | 0.611 | 0.521 | 0.661 | 0.62 | 0.481 | 0.413 | 0.371 | 0.387 | 0.349 | 0.231 | 0.306 | 0.304 | 0.302 | 0.334 | 0.306 | 0.366 | 0.323 | 0.429 | 0.434
6 | HARA | 0.876 | 0.844 | 0.715 | 1.28 | 0.849 | 0.541 | 0.401 | 0.451 | 0.41 | 0.333 | 0.829 | 0.904 | 0.79 | 0.803 | 0.702 | 0.516 | 0.403 | 0.43 | 0.491
7 | HCC-15 | 0.779 | 0.742 | 0.791 | 0.713 | 0.727 | 0.576 | 0.487 | 0.509 | 0.467 | 0.423 | 0.827 | 0.789 | 0.854 | – | 0.785 | 0.401 | 0.54 | 0.494 | 0.469
8 | HCC-44 | 0.99 | 1.08 | 0.965 | 1.03 | 1.11 | 0.171 | 0.297 | 0.269 | 0.306 | 0.0849 | 1.09 | 1.02 | 1.04 | 1.18 | 0.916 | 0.31 | 0.194 | 0.276 | 0.322
9 | HCC-78 | 0.922 | 0.73 | 0.854 | 0.852 | 0.622 | 0.739 | 0.848 | 0.782 | 0.597 | 0.512 | 1.3 | 0.767 | 1.15 | 0.171 | 0.677 | 0.695 | 0.56 | 0.68 | 0.719
10 | HCC-366 | – | 0.319 | 0.36 | 0.353 | 0.308 | 0.671 | 0.599 | 0.651 | 0.681 | 0.646 | 1 | 1.15 | 1.11 | – | 1.04 | 0.653 | 0.656 | 0.618 | 0.659
11 | HCC-827 | 0.616 | 0.716 | 0.711 | 0.54 | 0.355 | 0.409 | 0.417 | 0.398 | 0.382 | 0.242 | 0.233 | 0.203 | 0.168 | 0.246 | 0.196 | 0.375 | 0.392 | 0.414 | 0.358
12 | HOP-62 | 0.268 | 0.426 | 0.587 | 0.643 | 0.556 | 0.758 | 0.709 | 0.671 | 0.671 | 0.729 | 0.929 | 0.784 | 1.02 | 0.512 | 0.982 | 0.602 | 0.844 | 0.756 | 0.621
13 | LC-2-ad | 0.68 | 0.743 | 0.706 | 0.714 | 0.794 | 0.648 | 0.58 | 0.638 | 0.651 | 0.433 | 0.899 | 0.922 | 1 | 0.967 | 0.661 | – | 0.676 | 0.639 | 0.612
14 | LCLC-97TM1 | 0.487 | 0.51 | 0.416 | 0.301 | 0.47 | 0.471 | 0.425 | 0.38 | 0.476 | 0.524 | 1.53 | 1.45 | 1.65 | 0.83 | 1.36 | 0.328 | 0.511 | 0.437 | 0.396
15 | LK-2 | 0.772 | 0.835 | 0.712 | 0.669 | 0.769 | 0.77 | 0.517 | 0.559 | 0.548 | 0.228 | 1.06 | 0.693 | 0.975 | 0.814 | 0.733 | 0.354 | 0.377 | 0.547 | 0.494
16 | LOU-NH91 | 0.948 | 0.896 | 0.989 | 0.89 | 0.727 | 0.731 | 0.763 | 0.746 | 0.73 | 0.439 | 0.701 | 0.749 | 0.801 | 0.575 | 0.709 | 0.771 | 0.787 | 0.867 | 0.781
